Laboratory results from PubChem BioAssay AID1259408 (Genetic Toxicology Data Bank (GENE-TOX), 2018).
The source made the active and inactive calls. No rule for the calls is given here.

Tested on: GENE-TOX genotoxicity assays, various organisms and cells
Assay: GENE-TOX mutagenicity studies
Details: for call: Assay Type: In vivo carcinogenicity studies
[1] = Species/Cell Type: Mammalian polychromatic erythrocytes, Assay Type: Micronucleus test, chromosome aberrations, Assay Code: MNTT, Evaluation Type: Evaluation A (Pre-1980)
[2] = Species/Cell Type: Rodents, Sex: Male, Assay Type: Dominant lethal test, Assay Code: DLT-, Evaluation Type: Evaluation A (Pre-1980)
[3] = Species/Cell Type: Nonhuman, Assay Code: CCG-, Evaluation Type: Evaluation A (Pre-1980)
[4] = Species/Cell Type: Saccharomyces cerevisiae, Assay Type: Forward gene mutation, Assay Code: YEFT, Evaluation Type: Evaluation A (Pre-1980)
[5] = Species/Cell Type: Bacillus subtilis (H17 vs M45), Assay Type: Rec-assay, spot test, DNA effects (bacterial DNA repair), Assay Code: REWT, Evaluation Type: Evaluation A (Pre-1980)
[6] = Species/Cell Type: Bacillus subtilis (H17 vs M45T), Assay Type: Rec-assay, spot test, DNA effects (bacterial DNA repair), Assay Code: REXT, Evaluation Type: Evaluation A (Pre-1980)
[7] = Species/Cell Type: Nonhuman, Assay Code: CCG+, Evaluation Type: Evaluation A (Pre-1980)
[8] = Species/Cell Type: Saccharomyces cerevisiae, Assay Type: Mitotic recombination or gene conversion, Assay Code: YEC-, Evaluation Type: Evaluation A (Pre-1980)
[9] = Species/Cell Type: Salmonella typhimurium (one or more of the five standard strains: TA98, TA100, TA1535, TA1537, and TA1538), Assay Type: Histidine reverse gene mutation, Ames assay, Assay Code: SAL-, Evaluation Type: Evaluation A (Pre-1980)
[10] = Species/Cell Type: Salmonella typhimurium (one or more of the five standard strains: TA98, TA100, TA1535, TA1537, and TA1538), Assay Type: Histidine reverse gene mutation, Ames assay, Assay Code: SAL+, Evaluation Type: Evaluation A (Pre-1980)
[11] = Species/Cell Type: Saccharomyces cerevisiae, Assay Type: Mitotic recombination or gene conversion, Assay Code: YEH-, Evaluation Type: Evaluation A (Pre-1980)
[12] = Species/Cell Type: Salmonella typhimurium (one or more of the five standard strains: TA98, TA100, TA1535, TA1537, and TA1538), Assay Type: Histidine reverse gene mutation, Ames assay, Assay Code: SALT, Evaluation Type: Evaluation A (Pre-1980)

CCN(CC)C(=O)[C@@H]1C=C2c3cccc4[nH]cc(c34)C[C@H]2N(C)C1
mutagenic call (Species/Cell Type: Allium cepa, Assay Type: Chromosome aberrations, Assay Code: ALC+, Evaluation Type: Evaluation A (Pre-1980)): active; positive
mutagenic call (Species/Cell Type: Arabidopsis species, Assay Type: Gene mutation, Assay Code: ARM-, Evaluation Type: Evaluation A (Pre-1980)): inactive; negative
mutagenic call (Species/Cell Type: Drosophila melanogaster, Assay Type: Aneuploidy, partial sex chromosome loss, chromosome aberrations, Assay Code: DAP+M, Evaluation Type: Evaluation A (Pre-1980)): active; positive
mutagenic call (Species/Cell Type: Drosophila melanogaster, Assay Type: Aneuploidy, sex chromosome gain, chromosome aberrations, Assay Code: DAG+M, Evaluation Type: Evaluation A (Pre-1980)): active; positive
mutagenic call (Species/Cell Type: Drosophila melanogaster, Assay Type: Aneuploidy, whole sex chromosome loss, chromosome aberrations, Assay Code: DAC+M, Evaluation Type: Evaluation A (Pre-1980)): active; positive
mutagenic call (Species/Cell Type: Drosophila melanogaster, Assay Type: Sex-linked recessive lethal gene mutation, Assay Code: SRL+, Evaluation Type: Evaluation A (Pre-1980)): active; positive
mutagenic call (Species/Cell Type: Drosophila melanogaster, Sex: Male, Assay Type: Heritable translocation test, chromosome aberrations, Assay Code: DHT-, Evaluation Type: Evaluation A (Pre-1980)): inactive; negative
mutagenic call (Species/Cell Type: Hordeum vulgare (barley), Assay Type: Chromosome aberrations, Assay Code: HOC+, Evaluation Type: Evaluation A (Pre-1980)): active; positive
mutagenic call (Species/Cell Type: Human lymphocytes or leukocytes, Assay Type: Chromosome aberrations in vitro, Assay Code: CY7-, Evaluation Type: Evaluation A (Pre-1980)): inactive; negative
mutagenic call (Species/Cell Type: Human lymphocytes or leukocytes, Assay Type: Chromosome aberrations in vivo, Assay Code: CY8T, Evaluation Type: Evaluation A (Pre-1980)): no conclusion
mutagenic call (Species/Cell Type: Mammalian germ cells, Sex: Male, Assay Type: Chromosome aberrations in vivo, Assay Code: CY9-, Evaluation Type: Evaluation A (Pre-1980)): inactive; negative
mutagenic call (Species/Cell Type: Mammalian oocytes or early embryo, Assay Type: Chromosome aberrations in vivo, Assay Code: CYO-, Evaluation Type: Evaluation A (Pre-1980)): inactive; negative
mutagenic call [1]: no conclusion
mutagenic call (Species/Cell Type: Nonhuman, Assay Type: Chromosome aberrations in vitro, Assay Code: CY&-, Evaluation Type: Evaluation A (Pre-1980)): inactive; negative
mutagenic call [2]: inactive; negative
mutagenic call (Species/Cell Type: Vicia faba, Assay Type: Chromosome aberrations, Assay Code: VIC-, Evaluation Type: Evaluation A (Pre-1980)): inactive; negative

CCCCCCCCCCCCCC(=O)O[C@@H]1[C@@H](C)[C@@]2(O)[C@@H](C=C(CO)C[C@]3(OC)C(=O)C(C)=C[C@@H]23)[C@@H]2C(C)(C)[C@]12OC(C)=O
mutagenic call (Species/Cell Type: Nonhuman, Assay Type: Sister-chromatid exchange (SCE) in vitro, Assay Code: SC2-, Evaluation Type: Evaluation A (Pre-1980)): inactive; negative
mutagenic call (Species/Cell Type: Nonhuman, Assay Type: Sister-chromatid exchange (SCE) in vitro, Assay Code: SC2T, Evaluation Type: Evaluation B (Post-1980)): no conclusion

c1ccc2[nH]c(-c3cscn3)nc2c1
mutagenic call (Species/Cell Type: Aspergillus nidulans, Assay Type: Aneuploidy, chromosome aberrations, Assay Code: ASN+, Evaluation Type: Evaluation A (Pre-1980)): active; positive
mutagenic call (Species/Cell Type: Aspergillus nidulans, Assay Type: Mitotic recombination, Assay Code: ASGT, Evaluation Type: Evaluation A (Pre-1980)): no conclusion
mutagenic call (Species/Cell Type: Mammalian polychromatic erythrocytes, Assay Type: Micronucleus test, chromosome aberrations, Assay Code: MNT+, Evaluation Type: Evaluation B (Post-1980)): active; positive

O=C(C#Cc1ccc([N+](=O)[O-])o1)NC1CCCCC1
mutagenic call (Species/Cell Type: Neurospora crassa, Assay Type: Forward gene mutation, Assay Code: NEF-, Evaluation Type: Evaluation A (Pre-1980)): inactive; negative

CC(=O)Nc1ccc(C(=O)CCl)cc1
call [3]: inactive; negative

CS(=O)(=O)OC/C=C\COS(C)(=O)=O
mutagenic call (Species/Cell Type: Drosophila melanogaster, Assay Type: Sex-linked recessive lethal gene mutation, Assay Code: SRLT, Evaluation Type: Evaluation A (Pre-1980)): no conclusion

Cc1ccc2c(c1)cc1ccccc1[n+]2C
mutagenic call [4]: no conclusion

Cc1cc(C)c(N=Nc2c(O)c(S(=O)(=O)O)cc3cc(S(=O)(=O)O)ccc23)cc1C
mutagenic call [5]: no conclusion
mutagenic call [6]: no conclusion
call [7]: active; positive
mutagenic call [8]: inactive; negative
mutagenic call [9]: inactive; negative

O=c1ccc2ccccc2o1
mutagenic call (Species/Cell Type: Allium cepa, Assay Type: Chromosome aberrations, Assay Code: ALC+D, Dose Response: With dose response, Evaluation Type: Evaluation A (Pre-1980)): active; positive

CC1=CCc2c1c(C)cc1c2ccc2ccccc21
mutagenic call (Species/Cell Type: Salmonella typhimurium (one or more of the five standard strains: TA98, TA100, TA1535, TA1537, and TA1538), Assay Type: Histidine reverse gene mutation, Ames assay, Assay Code: SAL+*, Activation: With metabolic activation, Evaluation Type: Evaluation A (Pre-1980)): active; positive

O=[N+]([O-])c1cccc2ccccc12
call [3]: inactive; negative

Cc1ccc2nc3ccccc3cc2c1
mutagenic call [4]: no conclusion

O=C(NO)c1ccccc1O
mutagenic call [10]: active; positive

CNC(C)C1CCC(N)C(OC2C(N)CC(N)C(OC3OCC(C)(O)C(NC)C3O)C2O)O1 (stereo not given)
mutagenic call [11]: inactive; negative

NCC(=O)CCC(=O)O
mutagenic call [2]: inactive; negative

COc1ccc2c3c4n(c2c1)[C@@H](C=C(C)C)OOC(C)(C)C[C@@H]4N1C(=O)[C@@H]2CCCN2C(=O)[C@]1(O)[C@H]3O
mutagenic call [11]: inactive; negative
mutagenic call [12]: no conclusion

Nc1cc([N+](=O)[O-])ccc1O
mutagenic call [1]: no conclusion
mutagenic call (Species/Cell Type: Neurospora crassa, Assay Type: Aneuploidy, chromosome aberrations, Assay Code: NEN-, Evaluation Type: Evaluation A (Pre-1980)): inactive; negative
mutagenic call [2]: inactive; negative

CC(=O)ON(C(C)=O)c1ccc(/C=C/c2ccccc2)cc1
mutagenic call (Species/Cell Type: Saccharomyces cerevisiae, Assay Type: Mitotic recombination or gene conversion, Assay Code: YEC+, Evaluation Type: Evaluation A (Pre-1980)): active; positive
mutagenic call (Species/Cell Type: Saccharomyces cerevisiae, Assay Type: Mitotic recombination or gene conversion, Assay Code: YEH+, Evaluation Type: Evaluation A (Pre-1980)): active; positive
mutagenic call (Species/Cell Type: Saccharomyces cerevisiae, Assay Type: Reverse gene mutation, Assay Code: YER+, Evaluation Type: Evaluation A (Pre-1980)): active; positive

Cc1cc(=Nc2ccc3c(c2)c(-c2ccc(N)cc2)[n+](C)c2cc(N)ccc32)nc(N)n1C
mutagenic call [10]: active; positive

O=P1(N(CCCl)CCCl)NC(OO)CCO1 (stereo not given)
mutagenic call (Species/Cell Type: Human lymphocytes, Assay Type: Sister-chromatid exchange (SCE) in vitro, Assay Code: SCL+D, Dose Response: With dose response, Evaluation Type: Evaluation B (Post-1980)): active; positive
mutagenic call (Species/Cell Type: Human, Assay Type: Sister-chromatid exchange (SCE) in vitro, Assay Code: SC1+D, Dose Response: With dose response, Evaluation Type: Evaluation B (Post-1980)): active; positive

CCNC(=S)NCC
call (Species/Cell Type: Nonhuman, Assay Code: CCG+L, Evaluation Type: Evaluation A (Pre-1980)): active; positive
mutagenic call (Species/Cell Type: Syrian hamster embryo (SA7/SHE) cells, Assay Type: Cell transformation, viral enhanced, Assay Code: CT7-, Evaluation Type: Evaluation A (Pre-1980)): inactive; negative

CCN(CC)CCOC(=O)c1ccc(N)cc1
mutagenic call (Species/Cell Type: Escherichia coli polA (W3119 vs P3478), Assay Type: Rec-assay, DNA effects (bacterial DNA repair), Assay Code: RE1T, Evaluation Type: Evaluation A (Pre-1980)): no conclusion
mutagenic call [12]: no conclusion

OC1c2cccc3ccc4cc5ccccc5c(c4c23)C1O (stereo not given)
mutagenic call (Species/Cell Type: Chinese hamster lung (V79) cells, Assay Type: Forward gene mutation at the HPRT or ouabain locus, Assay Code: V79-, Evaluation Type: Evaluation A (Pre-1980)): inactive; negative

N=C(N)SCCN
mutagenic call (Species/Cell Type: Human lymphocytes, Assay Type: Sister-chromatid exchange (SCE) in vitro, Assay Code: SCL+, Evaluation Type: Evaluation B (Post-1980)): active; positive
mutagenic call (Species/Cell Type: Human lymphocytes, Assay Type: Sister-chromatid exchange (SCE) in vitro, Assay Code: SCLT, Evaluation Type: Evaluation B (Post-1980)): no conclusion
mutagenic call (Species/Cell Type: Human, Assay Type: Sister-chromatid exchange (SCE) in vitro, Assay Code: SC1+, Evaluation Type: Evaluation B (Post-1980)): active; positive
mutagenic call (Species/Cell Type: Human, Assay Type: Sister-chromatid exchange (SCE) in vitro, Assay Code: SC1T, Evaluation Type: Evaluation B (Post-1980)): no conclusion

NCC(O)CCl (stereo not given)
mutagenic call [2]: inactive; negative

O=C1C(c2[nH]c3ccc(S(=O)(=O)O)cc3c2O)=Nc2ccc(S(=O)(=O)O)cc21
mutagenic call [5]: no conclusion
mutagenic call [6]: no conclusion
mutagenic call [8]: inactive; negative
mutagenic call [9]: inactive; negative

O=C1NC(=O)C(c2ccc(O)cc2)(c2ccc(O)cc2)N1
mutagenic call (Species/Cell Type: Mammalian polychromatic erythrocytes, Assay Type: Micronucleus test, chromosome aberrations, Assay Code: MNTT, Evaluation Type: Evaluation B (Post-1980)): no conclusion

CN(C)/C=N/c1nnc(/C=C/c2ccc([N+](=O)[O-])o2)o1
call [7]: active; positive
mutagenic call [10]: active; positive
